The target of assay [1] is T1, PPAR Alpha (Homo sapiens, UniProt Q07869).
T1 sequence (Q07869 1-468): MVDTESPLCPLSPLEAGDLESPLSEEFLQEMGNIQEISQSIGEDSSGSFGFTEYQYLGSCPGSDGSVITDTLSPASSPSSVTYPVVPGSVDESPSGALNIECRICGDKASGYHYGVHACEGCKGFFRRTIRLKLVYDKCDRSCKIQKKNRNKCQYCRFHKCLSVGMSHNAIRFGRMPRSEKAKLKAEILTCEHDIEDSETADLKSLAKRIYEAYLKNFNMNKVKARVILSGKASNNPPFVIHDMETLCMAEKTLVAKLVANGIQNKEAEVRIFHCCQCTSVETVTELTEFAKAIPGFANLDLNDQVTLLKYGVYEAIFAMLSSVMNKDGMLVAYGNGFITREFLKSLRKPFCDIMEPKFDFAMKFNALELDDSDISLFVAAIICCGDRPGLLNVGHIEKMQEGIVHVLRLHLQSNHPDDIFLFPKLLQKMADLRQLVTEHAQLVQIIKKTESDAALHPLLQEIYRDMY
The experiment in a line: PathHunter NHR protein interaction / nuclear translocation agonist test, PPAR Alpha. The class given is cell-based. Conditions: for EC50: agonist mode, read-out: PPAR Alpha EC50; for Emax: read-out: PPAR Alpha Maximum Activation Response %.

Assay [2] has as its target T2, PPAR Delta (Homo sapiens, UniProt Q03181).
T2 sequence (Q03181 1-441): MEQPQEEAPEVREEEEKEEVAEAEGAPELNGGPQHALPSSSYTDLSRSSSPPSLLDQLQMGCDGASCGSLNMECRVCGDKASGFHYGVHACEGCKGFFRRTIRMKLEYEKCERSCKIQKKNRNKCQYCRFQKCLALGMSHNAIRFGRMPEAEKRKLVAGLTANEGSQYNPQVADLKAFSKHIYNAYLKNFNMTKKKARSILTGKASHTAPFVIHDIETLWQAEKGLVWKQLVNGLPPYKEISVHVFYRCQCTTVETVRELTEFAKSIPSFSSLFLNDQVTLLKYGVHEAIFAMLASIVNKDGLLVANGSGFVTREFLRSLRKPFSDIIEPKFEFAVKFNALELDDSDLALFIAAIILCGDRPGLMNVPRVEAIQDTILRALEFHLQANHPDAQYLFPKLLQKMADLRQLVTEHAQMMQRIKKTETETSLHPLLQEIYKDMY
As to the kind of experiment: PathHunter NHR protein interaction / nuclear translocation agonist test, PPAR Delta. The class given is cell-based. Conditions: for EC50: agonist mode, read-out: PPAR Delta EC50; for Emax: read-out: PPAR Delta Maximum Activation Response %.

Like-named read-outs stand apart in the source and are kept apart here.

Turning to `CSc1ccc(C(=O)[C@H]2CN(C)C[C@@H]2c2cc(C)c(OC(C)(C)C(=O)O)c(C)c2)cc1` (racemic) [Compound 1], in assay [1], the EC50 was greater than 250 nM and the Emax was less than 50%.

On to `CSc1ccc(C(=O)[C@H]2CN(Cc3ccccc3)C[C@@H]2c2cc(C)c(OC(C)(C)C(=O)O)c(C)c2)cc1` (racemic) [Compound 2], for which, in assay [1], the EC50 was greater than 250 nM and the Emax is less than 50%.

Regarding `CSc1ccc(C(=O)[C@H]2CNC[C@@H]2c2cc(C)c(OC(C)(C)C(=O)O)c(C)c2)cc1` (racemic) [Compound 3], in assay [1], the EC50 is greater than 250 nM and the Emax is less than 50%.

As for `CSc1ccc(C(=O)C2CN(C(=O)Oc3ccccc3Cl)C[C@@H]2c2cc(C)c(OC(C)(C)C(=O)O)c(C)c2)cc1` (mixture of isomers) [Compound 12], in assay [2], the EC50 was greater than 250 nM and the Emax is 50 to 80%. For the same compound, in assay [1], the EC50 lay in the range of 150 to 200 nM and the Emax was 80 to 100%.

On to `COc1ccc(OC(=O)N2CC(C(=O)c3ccc(SC)cc3)[C@@H](c3cc(C)c(OC(C)(C)C(=O)O)c(C)c3)C2)cc1` (mixture of isomers) [Compound 15], for which, in assay [2], the EC50 lay in the range of 200 to 250 nM and the Emax was 50 to 80%. In assay [1], the EC50 is 150 to 200 nM and the Emax lay within 80 to 100%.

On to `COC(=O)N1C[C@@H](C(=O)c2ccc(SC)cc2)[C@H](c2cc(C)c(OC(C)(C)C(=O)O)c(C)c2)C1` (single isomer, unassigned) [Compound 4], for which, in assay [1], the “PPAR Alpha Maximum Activation Response %” value is “III (key: 100% ≥ I ≥ 80%; 80% ≥ II ≥ 50%; III < 50%)” and the EC50 is greater than 250 nM.

For the compound `CCOC(=O)N1CC(C(=O)c2ccc(SC)cc2)C(c2cc(C)c(OC(C)(C)C(=O)O)c(C)c2)C1` (single isomer, unassigned) [Compound 6], in assay [1], the EC50 was greater than 250 nM and the Emax lay in the range of 50 to 80%.

On to `CSc1ccc(C(=O)C2CN(C(=O)OCc3ccccc3)CC2c2cc(C)c(OC(C)(C)C(=O)O)c(C)c2)cc1` (single isomer, unassigned) [Compound 8], for which, in assay [1], the EC50 was greater than 250 nM and the Emax lay within 50 to 80%.

For `CSc1ccc(C(=O)C2CN(C(=O)c3ccccc3)CC2c2cc(C)c(OC(C)(C)C(=O)O)c(C)c2)cc1` (single isomer, unassigned) [Compound 16], in assay [1], the EC50 is greater than 250 nM and the Emax fell in the range of 80 to 100%.

Turning to `CSc1ccc(C(=O)C2CN(C(=O)c3ccccc3)CC2c2cc(C)c(OC(C)(C)C(=O)O)c(C)c2)cc1` (single isomer, unassigned) [Compound 17], the EC50 in assay [1] was greater than 250 nM.

For the compound `COC(=O)N1CC(Cc2ccc(SC)cc2)C(c2cc(C)c(OC(C)(C)C(=O)O)c(C)c2)C1` (single isomer, unassigned) [Compound 22], in assay [1], the EC50 was greater than 250 nM and the Emax was less than 50%.

Regarding `COC(=O)N1CC(Cc2ccc(SC)cc2)C(c2cc(C)c(OC(C)(C)C(=O)O)c(C)c2)C1` (single isomer, unassigned) [Compound 23], the EC50 in assay [1] is greater than 250 nM.

For the compound `CSc1ccc(C(=O)C2CN(C(=O)Oc3ccccc3)CC2Cc2cccc(OC(C)(C)C(=O)O)c2)cc1` (single isomer, unassigned) [Compound 49], in assay [2], the EC50 fell in the range of 100 to 150 nM and the Emax is 50 to 80%.

As to `CSc1ccc(C(=O)C2CN(C(=O)Oc3ccccc3)CC2Cc2cccc(OC(C)(C)C(=O)O)c2)cc1` (single isomer, unassigned) [Compound 50], in assay [2], the “PPAR Delta Maximum Activation Response %” value is “II (key: 100% ≥ I ≥ 80%; 80% ≥ II ≥ 50%; III < 50%)” and the EC50 was 150 to 200 nM.

In the case of `CSc1ccc(C(=O)C2CN(C(=O)Oc3ccccc3)CC2c2cccc(OC(C)(C)C(=O)O)c2)cc1` (stereo not drawn) [Compound 24], in assay [2], the EC50 was greater than 250 nM and the Emax is 80 to 100%.

Turning to `CC(C)(Sc1ccc(CCN(CCCCC2CCCCC2)C(=O)NC2CCCCC2)cc1)C(=O)O` [GW7647, reference compound], in assay [1] (reference agonist, indicated to be 100% (Note 1)), the Emax came out at 100%.

The record behind these values is patent US10526320B2, “Pyrrolidine derivatives as PPAR agonists” (GUANGDONG RAYNOVENT BIOTECH CO., LTD., priority 2016, dated 2020).
